Test results reported in patent publication US20260183283A1 (priority 2022, published 2026).

Experiments:
[1] = oral gavage 10 mg/animal and 200 mg/animal; tablet or suspension
in vivo = settings: dog
[2] = tested on: Pcca^−/−PCCA(A138T)^tg/0 mice; experiment: Survival of Pcca−/−PCCA(A138T)tg/0 mice; type: in vivo; settings: 22.5 ppm (3 mg/kg) in chow; untreated ~51%
From the text: Water was supplied ad libitum.
At postnatal day 90, the probability of survival of Pcca^−/−PCCA(A138T)^tg/0 mice was ˜51%.

With `O=C(Cc1ccc(C2CC2)c(F)c1)N1CCN(c2ccc(Cl)nn2)CC1` [Compound (I), 1-(4-(6-chloropyridazin-3-yl)piperazin-1-yl)-2-(4-cyclopropyl-3-fluorophenyl)ethan-1-one] the “Dose proportionality of exposure as defined by AUC0-24” value [1] was “dose proportional”, the “Dose proportionality of exposure as defined by Cmax” value [1] was “close to dose proportional” and the clearance (in vivo; iv) was 16.9 mL/min/kg. For the same compound, the bioavailability (in vivo; po) was 29.8% and the “Probability of survival at postnatal day 90” value [2] was ~94%.
